Measurements from patent US12234248B2, “Co-crystal compounds comprising lithium ions and isonicotinamide” (UNIVERSITY OF LIMERICK, priority 2017, dated 2025).
Several values for one entry are separate records, joined by “and”; a condition that tells them apart may be missing. Identical values can stand only once. Blank lines part the entries; values can stand above or below the compound they belong to.

Tests used:
[1] = Bioavailability in vivo in rats: lithium in plasma and brain by ICP-OES after oral administration; details: for BRAIN CONC., Time(h) 2.00 / PLASMA CONC, Time(h) 2.00: 2 h; for BRAIN CONC., Time(h) 2.00 / BRAIN CONC., Time(h) 24.00 / BRAIN CONC., Time(h) 48.00 / BRAIN CONC., Time(h) 72.00: lithium in brain; for BRAIN CONC., Time(h) 2.00 / PLASMA CONC, Time(h) 2.00 / BRAIN CONC., Time(h) 24.00 / PLASMA CONC, Time(h) 24.00 / BRAIN CONC., Time(h) 48.00 / PLASMA CONC, Time(h) 48.00 / BRAIN CONC., Time(h) 72.00 / PLASMA CONC, Time(h) 72.00: individual rats (three per time); for PLASMA CONC, Time(h) 2.00 / PLASMA CONC, Time(h) 24.00 / PLASMA CONC, Time(h) 48.00 / PLASMA CONC, Time(h) 72.00: lithium in plasma; for BRAIN CONC., Time(h) 24.00 / PLASMA CONC, Time(h) 24.00: 24 h; for BRAIN CONC., Time(h) 48.00 / PLASMA CONC, Time(h) 48.00: 48 h; for BRAIN CONC., Time(h) 72.00 / PLASMA CONC, Time(h) 72.00: 72 h
Method: Male Sprague-Dawley rats, weighing 240-290 g, were treated through gastric intubation with formulations of lithium and compared with lithium carbonate as a reference. For each formulation a group of 12 rats was treated. 4 mEq/kg of lithium were orally administered, after suspension in 2 mL of corn seeds oil (“Olio Cuore”).
Four intervals' post-administration time (2, 24, 48 and 72 hours) were considered and three rats for each of them, employing the protocol used by Zaworotko and coworkers (Smith et al., Mol. Pharmaceutics 2013, 10, 4728-4738). At each time interval blood samples were collected through intra-cardiac […], these were treated with 50 μL of sodium heparin and centrifuged for 10 min at 1600 rpm. Plasma samples of approximately […] each were thus obtained. The brain was explanted in toto with perfusion with phosphate buffered saline (PBS) in order to preserve it in a viable state. The plasma and brain samples were immediately frozen at a temperature of −80° C., after measuring the weight of the brains.
In order to determine the concentration of the lithium by means of the ICP-OES (Inductively Coupled Plasma Optical Emission Spectometry) analysis, plasma and brain samples were purified and mineralized, respectively to obtain solutions suitable for analysis.
A 0.5 mL aliquot was taken from each sample, to which were added equal amounts of MilliQ water and concentrated nitric acid, in order to bring the lithium ion in solution in the form of LiNO3 and to obtain the precipitation of the proteins. At this point, each sample was sonicated for 10 min in an ultrasonic bath and diluted to a volume of 5.0 mL.
All samples were subjected to centrifugation for a period of 40 min, at a rotational speed of 6000 rpm, to obtain complete plasma proteins/solution separation. At the end supernatant liquid containing lithium was diluted to a final volume of 15 mL by adding MilliQ water. The obtained solutions were stored at a temperature of 4° C. until analysis.
The purpose of this phase was to obtain liquid samples, suitable to ICP-OES analysis, containing lithium in solution, starting from the solid organic tissue of the brain. The mineralization process allows the complete degradation of organic substances until the total transformation into simple inorganic substances.
The first operation performed was that the drying of the fabric, obtained through the use of a digester open PerkinElmer SPB 100-12: each sample of brain has been inserted in special containers Digitube™ 100 mL and maintained at a temperature of 80° C. for 120 min.
The second step involved the mineralization true and proper brain: each sample were added to 10 mL of concentrated nitric acid and 1.0 mL of hydrogen peroxide, then the system was brought to a temperature of 120° C. for 120 min. until the complete mineralization. With this procedure you get the desired biological degradation of organic compounds and the consequent passage of lithium in solution. The solutions thus obtained were collected, brought to a final volume of 20 mL with MilliQ water and preserved at a temperature of 4° C. until time of analysis.
In order to obtain the determination of lithium ion concentrations in the samples previously prepared, optical emission spectrometry inductively coupled plasma ICP-OES was used (PerkinElmer Optima 8000 spectrometer).
The analysis was conducted at the fixed wavelength of lithium (λ=670.784 nm) and the intensity of the radiation emitted by each sample was measured and compared standard solutions.
Plasma and brain concentration data were processed using a non-compartmental approach using WinNonlin® software (Pharsight Corporation, USA) and Microsoft Excel XP (Microsoft Corporation, […]).

[2] = Stability of crystalline material under warm humid conditions (40° C., 75% relative humidity), PXRD before and after; format: physicochemical; details: for Stable?: stored at 40° C., 75% relative humidity, stable = retained crystal form for at least two weeks by PXRD
Method: The stability of these compounds under warm humid conditions was assessed as follows:
The crystalline material was stored at 40° C. in an atmosphere of 75% relative humidity.
Compounds were classed as stable if they retained their crystal form for at least two weeks as verified by examination of PXRD patterns collected before and after exposure to humidity.
It can be seen that the pattern obtained after 2 months at 75% relative humidity and 40° C. (upper trace) in this case is different.

[3] = rat brain, 4 mEq/kg lithium oral, non-compartmental
[4] = rat brain, 4 mEq/kg lithium oral, terminal phase
[5] = rat brain, 4 mEq/kg lithium oral, time 0 to last quantifiable point
[6] = rat brain, relative to lithium carbonate
[7] = rat plasma, 4 mEq/kg lithium oral, non-compartmental
[8] = rat plasma, 4 mEq/kg lithium oral, terminal phase
[9] = rat plasma, relative to lithium carbonate

- AUC (Cerebral)/AUC (Plasma) ([1]; rat, in vivo): 1.208
- AUC(0-t) ([1]; rat, in vivo, po): 147 µg·h/mL
- AUClast (brain) ([1]; rat, in vivo, po): 0.177 mg·h/g
- Cmax (brain) ([1]; rat, in vivo, po): 4.0200 µg/g
- Cmax (plasma) ([1]; rat, in vivo, po): 3976.7 ng/mL
- Relative Brain BA (UL crystal forms, oral vs Li2CO3, oral) ([1]; rat, in vivo, po): 76.37%
- Relative Plasma BA (UL crystal forms, oral vs Li2CO3 oral) ([1]; rat, in vivo, po): 54.52%
- Tmax (brain) ([1]; rat, in vivo, po): 24 h
- Tmax (plasma) ([1]; rat, in vivo, po): 24 h
- t½_Lambda_z (brain) ([1]; rat, in vivo, po): 16.7775 h
- t½_Lambda_z (plasma) ([1]; rat, in vivo, po): 14.0638 h
- Stable? [2]: Yes
Compound: NC(=O)c1ccncc1.NC(=O)c1ccncc1.O=C([O-])/C=C/C(=O)[O-].[Li+].[Li+] [Compound 2, [Li2(fumarate)(isonicotinamide)2]n]

Compound: COc1cccc(C(=O)[O-])c1.O=C(O)[C@@H]1CCCN1.[Li+] [Compound 6, [Li(3-methoxybenzoate)(L-proline)]n]
- Cmax (brain) [1, 3]: 4.3733 µg/g
- Tmax (brain) [1, 3]: 24 h
- t½_Lambda_z (brain) [1, 4]: 15.3888 h
- AUClast (brain) [1, 5]: 172.7467 mg·h/g
- Relative Brain BA (UL crystal forms, oral vs Li2CO3, oral) [1, 6]: 74.33%
- Cmax (plasma) [1, 7]: 6383.3 ng/mL
- Tmax (plasma) [1, 7]: 24 h
- t½_Lambda_z (plasma) [1, 8]: 10.4363 h
- Relative Plasma BA (UL crystal forms, oral vs Li2CO3 oral) [1, 9]: 74.07%
- BRAIN CONC., Time(h) 2.00 ([1]; rat, 4 mEq/kg lithium oral): 0.64 µg/g and 0.44 µg/g and 0.73 µg/g
- PLASMA CONC, Time(h) 2.00 ([1]; rat, 4 mEq/kg lithium oral): 3030 ng/mL and 1430 ng/mL and 3380 ng/mL
- BRAIN CONC., Time(h) 24.00 ([1]; rat, 4 mEq/kg lithium oral): 4.54 µg/g and 4.21 µg/g and 4.37 µg/g
- PLASMA CONC, Time(h) 24.00 ([1]; rat, 4 mEq/kg lithium oral): 5950 ng/mL and 4760 ng/mL and 8440 ng/mL
- BRAIN CONC., Time(h) 48.00 ([1]; rat, 4 mEq/kg lithium oral): 2.84 µg/g and 2.06 µg/g and 2.46 µg/g
- PLASMA CONC, Time(h) 48.00 ([1]; rat, 4 mEq/kg lithium oral): 670 ng/mL and 740 ng/mL and 870 ng/mL
- BRAIN CONC., Time(h) 72.00 ([1]; rat, 4 mEq/kg lithium oral): 0.59 µg/g and 0.49 µg/g and 0.43 µg/g
- PLASMA CONC, Time(h) 72.00 ([1]; rat, 4 mEq/kg lithium oral): 230 ng/mL and 310 ng/mL and 250 ng/mL
- Stable? [2]: Yes

- Stable? [2]: No
Compound: {[Li(p-toluenesulfonate)]•H30}n [Compound 31]

- Stable? [2]: Yes
Compound: [Li2 (fumarate)]n [Compound 15]

Compound: O=C(O)[C@@H]1CCCN1.O=C([O-])c1ccccc1.[Li+] [Compound 12, [Li(benzoate)(L-proline)]n]
- Stable? [2]: Yes

Compound: NCCC(=O)O.NCCC(=O)O.O.O=C([O-])C(=O)[O-].[Li+].[Li+] [Compound 25, [Li2(oxalate)(beta-alanine)2(water)]n]
- Stable? [2]: No

Compound: COc1ccccc1C(=O)[O-].O=C(O)[C@@H]1CCCN1.[Li+] [Compound 1, [Li(2-methoxybenzoate)(L-proline)]n]
- Cmax (brain) [1, 3]: 3.5067 µg/g
- Tmax (brain) [1, 3]: 24 h
- t½_Lambda_z (brain) [1, 4]: 18.9045 h
- AUClast (brain) [1, 5]: 172.2533 mg·h/g
- Relative Brain BA (UL crystal forms, oral vs Li2CO3, oral) [1, 6]: 74.12%
- Cmax (plasma) [1, 7]: 4120 ng/mL
- Tmax (plasma) [1, 7]: 24 h
- t½_Lambda_z (plasma) [1, 8]: 12.9141 h
- Relative Plasma BA (UL crystal forms, oral vs Li2CO3 oral) [1, 9]: 58.42%
- BRAIN CONC., Time(h) 2.00 ([1]; rat, 4 mEq/kg lithium oral): 0.96 µg/g and 0.71 µg/g and 0.68 µg/g
- PLASMA CONC, Time(h) 2.00 ([1]; rat, 4 mEq/kg lithium oral): 3430 ng/mL and 1780 ng/mL and 2310 ng/mL
- BRAIN CONC., Time(h) 24.00 ([1]; rat, 4 mEq/kg lithium oral): 3.64 µg/g and 4.28 µg/g and 2.60 µg/g
- PLASMA CONC, Time(h) 24.00 ([1]; rat, 4 mEq/kg lithium oral): 3850 ng/mL and 6010 ng/mL and 2500 ng/mL
- BRAIN CONC., Time(h) 48.00 ([1]; rat, 4 mEq/kg lithium oral): 2.81 µg/g and 4.50 µg/g and 2.06 µg/g
- PLASMA CONC, Time(h) 48.00 ([1]; rat, 4 mEq/kg lithium oral): 970 ng/mL and 1780 ng/mL and 850 ng/mL
- BRAIN CONC., Time(h) 72.00 ([1]; rat, 4 mEq/kg lithium oral): 0.62 µg/g and 0.68 µg/g and 0.51 µg/g
- PLASMA CONC, Time(h) 72.00 ([1]; rat, 4 mEq/kg lithium oral): 230 ng/mL and 400 ng/mL and 310 ng/mL
- PXRD pattern after storage compared with initial pattern ([2]; after 2 months at 75% relative humidity and 40° C.): substantially identical
- Stable? [2]: Yes

- AUC (Cerebral)/AUC (Plasma) ([1]; rat, in vivo): 1.077
- AUC(0-t) ([1]; rat, in vivo, po): 197 µg·h/mL
- AUClast (brain) ([1]; rat, in vivo, po): 211.7400 mg·h/g
- Cmax (brain) ([1]; rat, in vivo, po): 5.1533 µg/g
- Cmax (plasma) ([1]; rat, in vivo, po): 4140 ng/mL
- Relative Brain BA (UL crystal forms, oral vs Li2CO3, oral) ([1]; rat, in vivo, po): 91.11%
- Relative Plasma BA (UL crystal forms, oral vs Li2CO3 oral) ([1]; rat, in vivo, po): 72.96%
- Tmax (brain) ([1]; rat, in vivo, po): 48 h
- Tmax (plasma) ([1]; rat, in vivo, po): 24 h
- t½_Lambda_z (brain) ([1]; rat, in vivo, po): 7.7957 h
- t½_Lambda_z (plasma) ([1]; rat, in vivo, po): 15.0424 h
- Stable? [2]: Yes
Compound: NC(=O)c1ccncc1.NC(=O)c1ccncc1.O=C([O-])CCC(=O)[O-].[Li+].[Li+] [Compound 7, [Li2(succinate) (isonicotinamide)2]n]
